Source: patent US9271960B2, “Tetrahydrocarbazoles as active agents for inhibiting VEGF production by translational control” (PTC Therapeutics, Inc., priority 2004, dated 2016)

What follows are compounds tested on VEGF (assay: Hypoxia-inducible endogenous VEGF expression ELISA in HeLa cells). Conditions: Homo sapiens, HeLa, compounds 1-155, hypoxic conditions (1% O2), VEGF protein by ELISA, read-out: ELISA Activity.
Type: cell-based
Procedure: The ability of compounds of the invention to modulate hypoxia-inducible endogenous VEGF expression is analyzed as follows. VEGF protein levels are monitored by an ELISA assay (R&D Systems). Briefly, HeLa cells are cultured for 24-48 hours under hypoxic conditions (1% O2, 5% CO2, balanced with nitrogen) in the presence or absence of a compound of the invention. The conditioned media is then assayed by ELISA, and the concentration of VEGF is calculated from the standard ELISA curve of each assay.
A dose-response analysis is performed using the ELISA assay and conditions described above. A series of different concentrations (e.g., seven) are analyzed. In parallel, a dose-response cytotoxicity assay is performed using Cell Titer Glo (Promega) under the same conditions as the ELISA to ensure that the inhibition of VEGF expression is not due to cytotoxicity. Dose-response curves are plotted using percentage inhibition versus concentration of the compound, and EC50 and CC50 values are generated for each compound with the maximal inhibition set as 100% and the minimal inhibition as 0%.
Compounds 156-188 in Table 1 are commercially available. In Table 1, each of the represented compounds is followed by one to five stars.

Compound | EC50 [nM]
FC(F)(F)Oc1ccc2[nH]c3c(c2c1)CCCC3Nc1ccccc1 (stereo not drawn) [Compound 34, Phenyl-(6-trifluoromethoxy-2,3,4,9-tetrahydro-1H-carbazol-1-yl)-amine] | 10 to 40
O=C(NC1CCCc2c1[nH]c1ccc(Br)cc21)c1ccc(Oc2ccccc2)cc1 (stereo not drawn) [Compound 35, N-(6-Bromo-2,3,4,9-tetrahydro-1H-carbazol-1-yl)-4-phenoxy-benzamide] | 40 to 200
COc1cccc(C(=O)NC2CCCc3c2[nH]c2ccc(Br)cc32)c1OC (stereo not drawn) [Compound 39, N-(6-Bromo-2,3,4,9-tetrahydro-1H-carbazol-1-yl)-2,3-dimethoxy-benzamide] | 40 to 200
Brc1ccc2[nH]c3c(c2c1)CCCC3Nc1ccc(N2CCOCC2)cc1 (stereo not drawn) [Compound 40, (6-Bromo-2,3,4,9-tetrahydro-1H-carbazol-1-yl)-(4-morpholin-4-yl-phenyl)-amine] | 40 to 200
N#Cc1ccc(NC2CCCc3c2[nH]c2ccc(Br)cc32)cc1 (stereo not drawn) [Compound 44, 4-(6-Bromo-2,3,4,9-tetrahydro-1H-carbazol-1-ylamino)-benzonitrile] | 40 to 200
COc1ccccc1NC1CCCc2c1[nH]c1ccc(Br)cc21 (stereo not drawn) [Compound 45, (6-Bromo-2,3,4,9-tetrahydro-1H-carbazol-1-yl)-(2-methoxy-phenyl)-amine] | 40 to 200
O=S(=O)(NC1CCCc2c1[nH]c1ccc(Br)cc21)c1ccccc1 (stereo not drawn) [Compound 46, N-(6-Bromo-2,3,4,9-tetrahydro-1H-carbazol-1-yl)-benzenesulfonamide] | 40 to 200
Brc1ccc2c3c([nH]c2c1)C(Nc1ccccc1)CCC3 (stereo not drawn) [Compound 47, (7-Bromo-2,3,4,9-tetrahydro-1H-carbazol-1-yl)-phenyl-amine] | 40 to 200
O=C1CCCc2c1[nH]c1ccc(Br)cc21 [Compound 50, 6-Bromo-2,3,4,9-tetrahydro-carbazol-1-one] | 40 to 200
Brc1ccc2[nH]c3c(c2c1)CCCC3Nc1ccon1 (stereo not drawn) [Compound 51, (6-Bromo-2,3,4,9-tetrahydro-1H-carbazol-1-yl)-isoxazol-3-yl-amine] | 40 to 200
O=C(NC1CCCc2c1[nH]c1ccc(Br)cc21)c1ccc(Cl)nc1 (stereo not drawn) [Compound 52, N-(6-Bromo-2,3,4,9-tetrahydro-1H-carbazol-1-yl)-6-chloro-nicotinamide] | 40 to 200
CC1CCc2c(n(C)c3ccc(Br)cc23)C1=O (stereo not drawn) [Compound 53, 6-Bromo-2,9-dimethyl-2,3,4,9-tetrahydro-carbazol-1-one] | 40 to 200
Fc1ccc(OC2CCCc3c2[nH]c2ccc(Br)cc32)cc1 (stereo not drawn) [Compound 54, 6-Bromo-1-(4-fluoro-phenoxy)-2,3,4,9-tetrahydro-1H-carbazole] | 40 to 200
COc1cccc(CNC2CCCc3c2[nH]c2ccc(Br)cc32)c1OC (stereo not drawn) [Compound 55, (6-Bromo-2,3,4,9-tetrahydro-1H-carbazol-1-yl)-(2,3-dimethoxy-benzyl)-amine] | 40 to 200
CC(=O)Nc1ccc(NC2CCCc3c2[nH]c2ccc(Br)cc32)cc1 (stereo not drawn) [Compound 57, N-[4-(6-Bromo-2,3,4,9-tetrahydro-1H-carbazol-1-ylamino)-phenyl]-acetamide] | 200 to 1000
O=C(NC1CCCc2c1[nH]c1ccc(Br)cc21)c1cccnc1 (stereo not drawn) [Compound 58, N-(6-Bromo-2,3,4,9-tetrahydro-1H-carbazol-1-yl)-nicotinamide] | 40 to 200
O=C1CCCc2c1[nH]c1ccc(C(F)(F)F)cc21 [Compound 60, 6-Trifluoromethyl-2,3,4,9-tetrahydro-carbazol-1-one] | 200 to 1000
CN(C)c1ccc(NC2CCCc3c2[nH]c2ccc(Br)cc32)cc1 (stereo not drawn) [Compound 61, N-(6-Bromo-2,3,4,9-tetrahydro-1H-carbazol-1-yl)-N′,N′-dimethyl-benzene-1,4-diamine] | 200 to 1000
Brc1ccc2[nH]c3c(c2c1)CCCC3NCc1ccc2c(c1)OCO2 (stereo not drawn) [Compound 62, Benzo[1,3]dioxo-5-ylmethyl-(6-bromo-2,3,4,9-tetrahydro-1H-carbazol-1-yl)-amine] | 200 to 1000
OCCc1cccc(NC2CCCc3c2[nH]c2ccc(Br)cc32)c1 (stereo not drawn) [Compound 63, 2-[3-(6-Bromo-2,3,4,9-tetrahydro-1H-carbazol-1-ylamino)-phenyl]-ethanol] | 200 to 1000
Brc1ccc2[nH]c3c(c2c1)CCCC3NCC1CCCCC1 (stereo not drawn) [Compound 67, (6-Bromo-2,3,4,9-tetrahydro-1H-carbazol-1-yl)-cyclohexylmethyl-amine] | 200 to 1000
CN(C(=O)c1ccccc1)C1CCCc2c1[nH]c1ccc(Br)cc21 (stereo not drawn) [Compound 69, N-(6-Bromo-2,3,4,9-tetrahydro-1H-carbazol-1-yl)-N-methyl-benzamide] | 200 to 1000
Cc1ccc2[nH]c3c(c2c1)CCCC3=O [Compound 71, 6-Methyl-2,3,4,9-tetrahydro-carbazol-1-one] | 200 to 1000
CCCCNC1CCCc2c1[nH]c1ccc(Br)cc21 (stereo not drawn) [Compound 72, (6-Bromo-2,3,4,9-tetrahydro-1H-carbazol-1-yl)-butyl-amine] | 200 to 1000
O=C1CCCc2c1[nH]c1ccc(OC(F)(F)F)cc21 [Compound 73, 6-Trifluoromethoxy-2,3,4,9-tetrahydro-carbazol-1-one] | 200 to 1000
O=C(NC1CCCc2c1[nH]c1ccc(Br)cc21)c1cnccn1 (stereo not drawn) [Compound 74, Pyrazine-2-carboxylic acid (6-bromo-2,3,4,9-tetrahydro-1H-carbazol-1-yl)-amide] | < 10
O=C1CCCc2c1[nH]c1ccc(Cl)cc21 [Compound 76, 6-Chloro-2,3,4,9-tetrahydro-carbazol-1-one] | > 1000
Brc1ccc2[nH]c3c(c2c1)CCCC3NCC1CCCO1 (stereo not drawn) [Compound 77, (6-Bromo-2,3,4,9-tetrahydro-1H-carbazol-1-yl)-(tetrahydro-furan-2-ylmethyl)-amine] | > 1000
Brc1ccc2[nH]c3c(c2c1)CCc1cnoc1-3 [Compound 78, 7-Bromo-4,10-dihydro-5H-1-oxa-2,10-diaza-cyclopenta[a]fluorine] | > 1000

Next, values leading:

EC50 [nM] | Compound
40 to 200 | Clc1ccc(NC2CCCc3c2[nH]c2ccc(Br)cc32)cc1Cl (stereo not drawn) [Compound 36, (6-Bromo-2,3,4,9-tetrahydro-1H-carbazol-1-yl)-(3,4-dichloro-phenyl)-amine]
40 to 200 | Clc1ccc2[nH]c3c(c2c1)CCCC3n1cccc1 (stereo not drawn) [Compound 37, 6-Chloro-1-pyrrol-1-yl-2,3,4,9-tetrahydro-1H-carbazole]
40 to 200 | O=Cc1ccn(C2CCCc3c2[nH]c2ccc(Br)cc32)c1 (stereo not drawn) [Compound 38, 1-(6-Bromo-2,3,4,9-tetrahydro-1H-carbazol-1-yl)-1H-pyrrole-3-carbaldehyde]
40 to 200 | O=C1c2ccccc2C(=O)N1C1CCCc2c1[nH]c1ccc(Br)cc21 (stereo not drawn) [Compound 41, 2-(6-Bromo-2,3,4,9-tetrahydro-1H-carbazol-1-yl)-isoindole-1,3-dione]
40 to 200 | N#Cc1ccn(C2CCCc3c2[nH]c2ccc(Br)cc32)c1 (stereo not drawn) [Compound 42, 1-(6-Bromo-2,3,4,9-tetrahydro-1H-carbazol-1-yl)-1H-pyrrole-3-carbonitrile]
40 to 200 | Brc1cccc2[nH]c3c(c12)CCCC3Nc1ccccc1 (stereo not drawn) [Compound 43, (5-Bromo-2,3,4,9-tetrahydro-1H-carbazol-1-yl)-phenyl-amine]
40 to 200 | Clc1ccc2[nH]c3c(c2c1Cl)CCCC3n1cccc1 (stereo not drawn) [Compound 48, 5,6-Dichloro-1-pyrrol-1-yl-2,3,4,9-tetrahydro-1H-carbazole]
40 to 200 | Brc1ccc2[nH]c3c(c2c1)CCCC3n1ccc(CNc2ccccc2)c1 (stereo not drawn) [Compound 49, [1-(6-Bromo-2,3,4,9-tetrahydro-1H-carbazol-1-yl)-1H-pyrrol-3-ylmethyl]-phenyl-amine]
40 to 200 | COc1ccc2[nH]c3c(c2c1)CCCC3n1cccc1 (stereo not drawn) [Compound 56, 6-Methoxy-1-pyrrol-1-yl-2,3,4,9-tetrahydro-1H-carbazole]
200 to 1000 | N#Cc1ccc2[nH]c3c(c2c1)CCCC3n1cccc1 (stereo not drawn) [Compound 59, 8-Pyrrol-1-yl-6,7,8,9-tetrahydro-5H-carbazole-3-carbonitrile]
200 to 1000 | Brc1ccc2[nH]c3c(c2c1)CCCC3n1ccc(CN2CCOCC2)c1 (stereo not drawn) [Compound 64, 6-Bromo-1-(3-morpholin-4-ylmethyl-pyrrol-1-yl)-2,3,4,9-tetrahydro-1H-carbazole]
200 to 1000 | Brc1ccc2[nH]c3c(c2c1)CCCC3N1CC=CC1 (stereo not drawn) [Compound 65, 6-Bromo-1-(2,5-dihydro-pyrrol-1-yl)-2,3,4,9-tetrahydro-1H-carbazole]
200 to 1000 | CN(C(=O)c1cccc(Cl)c1)C1CCCc2c1[nH]c1ccc(Br)cc21 (stereo not drawn) [Compound 66, N-(6-Bromo-2,3,4,9-tetrahydro-1H-carbazol-1-yl)-3-chloro-N-methyl-benzamide]
200 to 1000 | Brc1ccc2[nH]c3c(c2c1)CCCC3NCc1ccco1 (stereo not drawn) [Compound 68, (6-Bromo-2,3,4,9-tetrahydro-1H-carbazol-1-yl)-furan-2-ylmethyl-amine]
200 to 1000 | Cc1ccc(C)n1C1CCCc2c1[nH]c1ccc(Br)cc21 (stereo not drawn) [Compound 70, 6-Bromo-1-(2,5-dimethylpyrrol-1-yl)-2,3,4,9-tetrahydro-1H-carbazole]

Same assay, conditions: Homo sapiens, compounds 1-155, hypoxic conditions (1% O2), VEGF protein by ELISA, read-out: ELISA Activity

Compound | EC50 [nM]
O=C(NC1CCCc2c1[nH]c1ccc(Br)cc21)Oc1ccccc1 (stereo not drawn) [Compound 75, (6-Bromo-2,3,4,9-tetrahydro-1H-carbazol-1-yl)-carbamic acid phenyl ester] | > 1000
